# Results: patent publication US20140206735A1, “HIGH DOSAGE TOPICAL METRONIDAZOLE AQUEOUS-BASED GEL FORMULATIONS AND THEIR USE TO TREAT ROSACEA” (Medicis Pharmaceutical Corporation, priority 2012, published 2014)
# Experiment: Saturated MTZ solubility at 25° C. in solvents and solvent mixtures
# Assay type: physicochemical
# [1] = MTZ in Phosphate buffer, 50 mM, pH 4
# [2] = MTZ in Phosphate buffer, 50 mM, pH 6
smiles,measurement,setting,value
"Cc1ncc([N+](=O)[O-])n1CCO [MTZ, 2-(2-methyl-5-nitro-1H-imidazol-1-yl)ethanol]","Solubility at 25° C. (n = 3, mean ± SEM)",MTZ in 1 wt % aq. polysorbate 60,9.72 ± 0.08 mg/g
same,"Solubility at 25° C. (n = 3, mean ± SEM)",MTZ in 2 wt % aq. Benzyl alcohol,10.81 ± 0.040 mg/g
same,"Solubility at 25° C. (n = 3, mean ± SEM)",MTZ in 10 wt % aq. Lutrol F127,9.15 ± 0.09 mg/g
same,"Solubility at 25° C. (n = 3, mean ± SEM)",MTZ in 50 wt % aq. glycerol,7.62 ± 0.19 mg/g
same,"Solubility at 25° C. (n = 3, mean ± SEM)",MTZ in Deionized water,8.70 ± 0.09 mg/g
same,Solubility at 25° C. (n = 1),MTZ in Ethanol,19.96 mg/g
same,"Solubility at 25° C. (n = 3, mean ± SEM)",MTZ in Ethanol,16.36 ± 0.12 mg/g
same,Solubility at 25° C. (n = 1),MTZ in Ethylene glycol,21.34 mg/g
same,Solubility at 25° C. (n = 1),MTZ in Glycerol,8.35 mg/g
same,Solubility at 25° C. (n = 1),MTZ in PEG 400,24.78 mg/g
same,"Solubility at 25° C. (n = 3, mean ± SEM)",MTZ in PEG 400,18.79 ± 1.23 mg/g
same,Solubility at 25° C. (n = 1),[1],9.09 mg/g
same,"Solubility at 25° C. (n = 3, mean ± SEM)",[1],8.26 ± 0.45 mg/g
same,Solubility at 25° C. (n = 1),"MTZ in Phosphate buffer, 50 mM, pH 5",9.13 mg/g
same,Solubility at 25° C. (n = 1),[2],9.10 mg/g
same,"Solubility at 25° C. (n = 3, mean ± SEM)",[2],8.57 ± 0.05 mg/g
same,Solubility at 25° C. (n = 1),"MTZ in Phosphate buffer, 50 mM, pH 7",9.07 mg/g
same,Solubility at 25° C. (n = 1),MTZ in Propylene glycol,20.74 mg/g
same,"Solubility at 25° C. (n = 3, mean ± SEM)",MTZ in Propylene glycol,18.62 ± 0.25 mg/g
same,Solubility at 25° C. (n = 1),MTZ in tetraglycol,29.65 mg/g
same,saturated MTZ solubility at 25° C.,"in certain alcohols (ethanol, benzyl alcohol), diols (ethylene glycol, propylene glycol), polyethers (PEG 400)",at least 20 mg/g
